The assay concerns P388 leukemia ip, CD2F1 mice, survival T/C. Kind of assay: NCI In Vivo Anticancer Drug Screen. Data for tumor model P388 Leukemia (intraperitoneal) in CD2F1 (CDF1) mice. Conditions: endpoint: median survival time, higher = longer survival. The procedure: The antitumor activity of compounds was measured in mice bearing transplantable tumors. Survival or tumor size were measured and the results are expressed as the measurement made in the treated group (T) divided by the measurement made in the vehicle treated control group (C). The tumor model used in this assay is P388 Leukemia (intraperitoneal) in CD2F1 (CDF1) mice

[1] abbreviates: dose: 25.0 mg/kg/injection, schedule: Q01DX005 (ip), vehicle: Klucel (hydroxypropylcellulose) (HPC).
Where [2] appears, read: dose: 50.0 mg/kg/injection, schedule: Q01DX005 (ip), vehicle: Klucel (hydroxypropylcellulose) (HPC).
Where [3] appears, read: dose: 50.0 mg/kg/injection, schedule: Q01DX009 (ip), vehicle: saline.
Where [4] appears, read: dose: 100.0 mg/kg/injection, schedule: Q01DX009 (ip), vehicle: saline.
Setting [5] is: dose: 200.0 mg/kg/injection, schedule: Q01DX009 (ip), vehicle: saline.
Where [6] appears, read: dose: 60.0 mg/kg/injection, schedule: Q01DX005 (ip), vehicle: saline with Tween-80.
The mark [7] stands for this setting: dose: 120.0 mg/kg/injection, schedule: Q01DX005 (ip), vehicle: saline with Tween-80.
Where [8] appears, read: dose: 50.0 mg/kg/injection, schedule: Q01DX009 (ip), vehicle: Klucel (hydroxypropylcellulose) (HPC).
The mark [9] stands for this setting: dose: 100.0 mg/kg/injection, schedule: Q01DX009 (ip), vehicle: Klucel (hydroxypropylcellulose) (HPC).
Setting [10] is: dose: 200.0 mg/kg/injection, schedule: Q01DX009 (ip), vehicle: Klucel (hydroxypropylcellulose) (HPC).
Setting [11] is: dose: 50.0 mg/kg/injection, schedule: Q01DX005 (ip), vehicle: saline with Tween-80.
The mark [12] stands for this setting: dose: 100.0 mg/kg/injection, schedule: Q01DX005 (ip), vehicle: saline with Tween-80.
[13] abbreviates: dose: 200.0 mg/kg/injection, schedule: Q01DX005 (ip), vehicle: saline with Tween-80.
The mark [14] stands for this setting: dose: 240.0 mg/kg/injection, schedule: Q01DX005 (ip), vehicle: saline with Tween-80.
Setting [15] is: dose: 100.0 mg/kg/injection, schedule: Q01DX005 (ip), vehicle: Klucel (hydroxypropylcellulose) (HPC).
Setting [16] is: dose: 200.0 mg/kg/injection, schedule: Q01DX005 (ip), vehicle: Klucel (hydroxypropylcellulose) (HPC).
The mark [17] stands for this setting: dose: 25.0 mg/kg/injection, schedule: Q01DX009 (ip), vehicle: Klucel (hydroxypropylcellulose) (HPC).

Where “and” joins values, the source holds several entries; their conditions need not be identical. Equal values may be shown once. Toxic doses and inconclusive results are not listed.

Data on 25 compounds can be found in PubChem BioAssay AID330 (DTP/NCI, 2004).

Regarding `c1ccc2c(Nc3ccc4c(c3)OCO4)c3c(nc2c1)CCCC3`, the T/C is 102 % of control (dose: 12.5 mg/kg/injection, schedule: Q01DX005 (ip), vehicle: Klucel (hydroxypropylcellulose) (HPC)); 101 % of control under setting [1]; 100 % of control and 112 % of control under setting [2].
`CNc1ccc2ccc(N(C)C)cc2n1`: the T/C is, setting by setting: (dose: 12.5 mg/kg/injection, schedule: Q04DX002 (ip), vehicle: Klucel (hydroxypropylcellulose) (HPC)) 102 % of control; (dose: 25.0 mg/kg/injection, schedule: Q04DX002 (ip), vehicle: Klucel (hydroxypropylcellulose) (HPC)) 97 % of control; (dose: 50.0 mg/kg/injection, schedule: Q04DX002 (ip), vehicle: Klucel (hydroxypropylcellulose) (HPC)) 101 % of control.
As for `CC(O)c1ccc(C(C)O)cc1` (configuration not stated), the T/C under setting [3] was 91 % of control, the T/C under setting [4] was 86 % of control and the T/C under setting [5] is 96 % of control.
Turning to `C/C=C1\CN2CCC34c5ccccc5N5C(C6C7CC8N(CCC89c8ccccc8N(C(C)=O)C69)C/C7=C\C)OCC(C1CC23)C54` (configuration not stated), the T/C runs as follows: (dose: 12.06 mg/kg/injection, schedule: Q01DX009 (ip), vehicle: saline with Tween-80) 100 % of control; (dose: 24.12 mg/kg/injection, schedule: Q01DX009 (ip), vehicle: saline with Tween-80) 107 % of control; (dose: 48.25 mg/kg/injection, schedule: Q01DX009 (ip), vehicle: saline with Tween-80) 109 % of control.
Consider `COc1ccccc1N/N=c1\c2nc3ccccc3nc1n(-c1ccccc1C)c(=S)n2-c1ccccn1`, for which the T/C was 102 % of control under setting [6] and 96 % of control under setting [7].
Take `OC1(CC2CO2)CCCc2ccccc21` (configuration not stated): the T/C was 93 % of control under setting [8], 91 % of control under setting [9] and 93 % of control under setting [10].
Turning to `Cc1nc2sccn2c1C#N`, the T/C reads like this: (dose: 12.5 mg/kg/injection, schedule: Q01DX001 (ip), vehicle: Klucel (hydroxypropylcellulose) (HPC)) 117 % of control; (dose: 25.0 mg/kg/injection, schedule: Q01DX001 (ip), vehicle: Klucel (hydroxypropylcellulose) (HPC)) 102 % of control; (dose: 50.0 mg/kg/injection, schedule: Q01DX001 (ip), vehicle: Klucel (hydroxypropylcellulose) (HPC)) 102 % of control.
Take `CCN(CC)CC.COC(=O)NC#N.[CH-]1CCCCC1.[CH-]1CCCCC1.[CH-]1CCCCC1.[Cl-].[Sn+4]`: the T/C (dose: 3.12 mg/kg/injection, schedule: Q01DX005 (ip), vehicle: saline with Tween-80) is 104 % of control and the T/C (dose: 6.25 mg/kg/injection, schedule: Q01DX005 (ip), vehicle: saline with Tween-80) is 98 % of control.
On to `Cc1cccn2c(N=O)cnc12`, for which the T/C (dose: 100.0 mg/kg/injection, schedule: Q04DX003 (ip), vehicle: saline with Tween-80) is 98 % of control.
As to `Cc1cc(=O)n(-c2ccc(S(=O)(=O)N=C(N)N)cc2)c(C)c1C(=O)O`, the T/C is 102 % of control under setting [11], 106 % of control under setting [12] and 103 % of control under setting [13].
On to `CS(=O)(=O)CS(=O)CS(=O)CS(=O)CC(NC(=O)CCC(N)C(=O)O)C(=O)O` (configuration not stated), for which the T/C was 96 % of control (dose: 12.5 mg/kg/injection, schedule: Q01DX005 (ip), vehicle: saline); 98 % of control (dose: 25.0 mg/kg/injection, schedule: Q01DX005 (ip), vehicle: saline); 97 % of control (dose: 50.0 mg/kg/injection, schedule: Q01DX005 (ip), vehicle: saline); 108 % of control (dose: 100.0 mg/kg/injection, schedule: Q01DX005 (ip), vehicle: suspension in saline).
For the compound `COc1ccc(-n2nc3c(ccc4ccccc43)c2N)cc1`, the T/C is 94 % of control under setting [6], 95 % of control under setting [7] and 94 % of control under setting [14].
In the case of `COC(=O)c1c(O)c2c(c3c1OC(C)(C)CC3)OC(C)(C)CC2`, the T/C is, setting by setting: (dose: 60.0 mg/kg/injection, schedule: Q01DX005 (ip), vehicle: Klucel (hydroxypropylcellulose) (HPC)) 93 % of control; under setting [6], 90 % of control; (dose: 120.0 mg/kg/injection, schedule: Q01DX005 (ip), vehicle: Klucel (hydroxypropylcellulose) (HPC)) 92 % of control; under setting [7], 91 % of control; (dose: 240.0 mg/kg/injection, schedule: Q01DX005 (ip), vehicle: Klucel (hydroxypropylcellulose) (HPC)) 90 % of control.
On to `CCN(CC)CCn1[nH]c2c3ccc(=O)cc3sc3c(NCCN)ccc1c32`, for which the T/C was 122 % of control and 229 % of control and 242 % of control (dose: 3.12 mg/kg/injection, schedule: Q01DX005 (ip), vehicle: water); 184 % of control and 250 % of control and 280 % of control (dose: 6.25 mg/kg/injection, schedule: Q01DX005 (ip), vehicle: water); 166 % of control and 194 % of control and 271 % of control (dose: 12.5 mg/kg/injection, schedule: Q01DX005 (ip), vehicle: water).
`O=C(O)c1cccc2c1C1CCC2c2cccc(C(=O)O)c21`: the T/C is 108 % of control (dose: 100.0 mg/kg/injection, schedule: Q04DX003 (ip), vehicle: Klucel (hydroxypropylcellulose) (HPC)); 107 % of control (dose: 200.0 mg/kg/injection, schedule: Q04DX003 (ip), vehicle: Klucel (hydroxypropylcellulose) (HPC)); 106 % of control (dose: 400.0 mg/kg/injection, schedule: Q04DX003 (ip), vehicle: Klucel (hydroxypropylcellulose) (HPC)).
Regarding `COC(=O)C(=O)c1c(C(=O)OC)nc2nnc(N)n2c1-c1ccc(O)c(OC)c1`, the T/C was 92 % of control under setting [6], 94 % of control under setting [7] and 94 % of control under setting [14].
With `CC(=O)C1(CCC(C)(S(=O)(=O)c2ccccc2)S(=O)(=O)c2ccccc2)CCCCC1=O` (configuration not stated), the T/C reads like this: (dose: 100.0 mg/kg/injection, schedule: Q01DX001 (ip), vehicle: Klucel (hydroxypropylcellulose) (HPC)) 99 % of control; (dose: 200.0 mg/kg/injection, schedule: Q01DX001 (ip), vehicle: Klucel (hydroxypropylcellulose) (HPC)) 100 % of control; (dose: 400.0 mg/kg/injection, schedule: Q01DX001 (ip), vehicle: Klucel (hydroxypropylcellulose) (HPC)) 106 % of control.
As for `C/C(N)=C(\C#N)C(=O)c1ccccc1`, the T/C under setting [2] was 100 % of control, the T/C under setting [15] is 103 % of control and the T/C under setting [16] was 111 % of control.
For `CCCCCCCC/C=C\CCCCCCCC(=O)OCCSCCOC(C)=O`, the T/C reads like this: under setting [8], 94 % of control; under setting [9], 101 % of control; under setting [10], 94 % of control.
Take `C[n+]1cccc2c1-c1ccccc1C2=O`: the T/C under setting [1] is 101 % of control, the T/C under setting [2] was 115 % of control, the T/C under setting [15] is 101 % of control and the T/C under setting [16] was 91 % of control.
With `CC12CCC(C(Br)C1=O)C2(C)CBr` (configuration not stated), the T/C under setting [11] was 103 % of control, the T/C under setting [12] was 104 % of control and the T/C under setting [13] was 92 % of control.
As to `Cc1ccc(S)c(C(O)(C(F)(F)F)C(F)(F)F)c1`, the T/C runs as follows: (dose: 50.0 mg/kg/injection, schedule: Q01DX009 (ip), vehicle: other) 100 % of control; (dose: 100.0 mg/kg/injection, schedule: Q01DX009 (ip), vehicle: other) 100 % of control; (dose: 200.0 mg/kg/injection, schedule: Q01DX009 (ip), vehicle: other) 100 % of control.
With `COC(CNc1nc2c(s1)c1c(O)c3c(O)c(C)c4c(c32)C(=O)C(C)(O/C=C\C(OC)C(C)C(OC(C)=O)C(C)C(O)C(C)C(O)C(C)/C=C/C=C(/C)C(=O)N1)O4)OC` (configuration not stated), the T/C reads like this: under setting [17], 93 % of control; under setting [8], 95 % of control; under setting [9], 93 % of control; under setting [10], 94 % of control.
For the compound `O=c1[nH]c(=O)c2ccccc2o1`, the T/C (dose: 6.25 mg/kg/injection, schedule: Q01DX009 (ip), vehicle: Klucel (hydroxypropylcellulose) (HPC)) is 104 % of control; the T/C (dose: 12.5 mg/kg/injection, schedule: Q01DX009 (ip), vehicle: Klucel (hydroxypropylcellulose) (HPC)) was 111 % of control; the T/C under setting [17] was 110 % of control; the T/C under setting [8] was 106 % of control.
In the case of `ClC1(Cl)CC1[Se]c1ccccc1` (configuration not stated), the T/C is 100 % of control under setting [3], 102 % of control under setting [4] and 99 % of control under setting [5].
